In US20050209157A1, “Short bioactive peptides and methods for their use” (priority 2001, published 2005):
In brackets after ≈: the same amount, converted by molar mass. Where two headings read alike, the source gives them in different places. Non-standard residues stand in square brackets, D forms with d. Residues, ends and D or L forms follow the SMILES beside them. No end group written: not given here.

Columns and labels:
cancer cell lines = assay: Anti-cancer assays, MTT, summary over the cancer cell lines; type: cell-based; conditions: X = preferred
[1] = tested on: Escherichia coli ATCC 25922; assay: Antimicrobial assay I, modified protocol (tryptic soy broth), MBC; conditions: minimum bactericidal concentration, Table 4
[2] = tested on: Pseudomonas aeruginosa ATCC 27853; assay: as above; conditions: minimum bactericidal concentration, Table 4
[3] = tested on: Stapholococcus aureus ATCC 25923; assay: as above; conditions: minimum bactericidal concentration, Table 4
[4] = tested on: Candida albicans ATCC 10231; assay: Antimicrobial assay I, modified protocol (tryptic soy broth), MFC; conditions: minimum fungicidal concentration, Table 4
in vitro [5] = type: cell-based, human; conditions: human, human red blood cells
in vitro [6] = conditions: human, WI38 normal lung fibroblast cells
[7] = tested on: Pseudomonas aeruginosa ATCC 9027; assay: Antimicrobial assay I, MIC by OD measurement; type: cell-based; conditions: 37° C. for 24 hours, absorbance 620 nm
[8] = tested on: Staphylococcus aureus ATCC 6538; assay: Antimicrobial assay I, MIC by OD measurement; type: cell-based; conditions: 37° C. for 24 hours, absorbance 620 nm
[9] = tested on: yeast (Saccharomyces cerevisiae); assay: Antimicrobial assay I, yeast assay in RPMI 1640; type: cell-based; conditions: RPMI 1640 media
BMKC = assay: Anti-cancer assay, MTT, LD50; type: cell-based; conditions: BMKC cloned melanoma line, 24 hours with peptide
Description: (§1) Numbers are LD50 values (μg/mL).

H1299 = assay: Anti-cancer assay, MTT, LD50; type: cell-based; conditions: 24 hours with peptide, lung large cell carcinoma
Description: as §1

HeLaS3 = assay: Anti-cancer assay, MTT, LD50; type: cell-based; conditions: 24 hours with peptide, cervical carcinoma
Description: as §1

MCF7 = assay: Anti-cancer assay, MTT, LD50; type: cell-based; conditions: MCF7 breast adenocarcinoma line, MTT, 24 hours with peptide
Description: as §1

PC3 = assay: Anti-cancer assay, MTT, LD50; type: cell-based; conditions: 24 hours with peptide, prostate adenocarcinoma
Description: as §1

SW480 = assay: Anti-cancer assay, MTT, LD50; type: cell-based; conditions: SW480 colon adenocarcinoma line, 24 hours with peptide
Description: as §1

P. aeruginosa H374 = type: cell-based, Pseudomonas aeruginosa; conditions: for FIC Index: 0.5 or less = synergy
How it was run: (§2)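 Efflux-mutant strains were tested with two-fold serial dilutions of chloramphenicol or nalidixic acid, alone and with peptide held at ¼ of its own MIC.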

P. aeruginosa H774 = type: cell-based, Pseudomonas aeruginosa; conditions: P. aeruginosa H744; nalidixic acid + peptide at ¼ MIC; 0.5 or less = synergy
How it was run: as §2

P. aeruginosa = type: cell-based, Pseudomonas aeruginosa; conditions: P. aeruginosa H744; MIC of nalidixic acid with peptide at ¼ MIC
How it was run: as §2

[10] = tested on: hairless rat skin burn wound; assay: In vivo wound healing, TCA chemically induced skin burn wound; conditions: rat model, TCA burn treated by peptide
Description: The hairless rat was chosen as a suitable test model. Female hairless rats of 100 to 150 grams weight and 8 to 12 weeks age were used in the study.
As an alternative, 70% trichloroacetic (TCA) dissolved in 70% ethanol was employed to induce the dermal erosion patches. […] As the chemical burn agent, the TCA treatment inflicted on the rats far less trauma and mortality than occurred with the Phenol model.
The experimental Protocol procedure steps were as follows: • 1. The animal was anesthetized (40 mg/kg Phenobarbital). • 2. Color photographs of the animal's back (with six separate peels) were taken before each treatment and daily thereafter. • 3. Rat skin surface was prepared by wiping with 70% ethanol. Filter paper discs (1.1 cm diameter) were soaked in 70% TCA/ethanol. • 4. The discs were placed on the back of the hairless rat for 30 minutes [6 disks providing for 2 control (no peptide treatment) disks and 4 disks for peels to receive peptide treatment.] • 5. After a 30 minute burn the discs were removed. Twenty four hours later, different peptide solutions (1500 ppm in saline) were applied to four peels, and saline was applied to the two control peels. • 6. Peptide solutions (and saline for the controls) were applied to the six wounds with a soft brush each day thereafter. • 7. It took approximately one month for the wounds to heal (complete skin closure with stabilized epidermis), after which the animal was sacrificed. • 8. The treated skin was harvested, section stained with trichrome, and mounted on slides.
The percentage of wound closure for each peel (six sites) was measured each day until the animal was sacrificed. The percentage closure was determined by measuring on the animal photographs the area of the remaining scab relative to the area of the initial scar after the burn. These measurements were made by digitizing and analyzing the peels using the Sigma Plot ProScan 4 program.
This provided a measure of the post-TCA burn treatment of the inflammatory response in each peel site.
The extent of epidermal thickening (hyperkeratosis) at each site was also determined by measurement with the Sigma Plot program applied to the stained section slides of the various wound areas and the normal untreated skin (control) surrounding the peels. At magnifications of 100× to 320×, the microphotographs of the color slides provided a powerful tool for such quantification of the extent of hyperkeratosis evident in each peel.
Treatment of the section slides with selective stains produced identifiable evidence of the presence of both leukocyte and fibroblast cells in the wound areas. This was also quantified by the Sigma Plot program.
The above described animal model and protocols were employed in the testing of approximately 20 of the peptides listed in Table 48 (and other peptides for comparison) as preferred FLAK peptides for wound healing.

WI38 = conditions: MTT, 24 hours with peptide; normal fibroblast line
[11] = pH 7, Table 26, valine substitution, read-out: Hemolysis RBC LD50
[12] = WI-38 LD50, Table 26, valine substitution

Molecule: FAKKLAKKLKKLAKKLAKKWKL-NH2 [compound 70]
- Anti-cancer (preferred peptide) (cancer cell lines): X (Preferred anticancer peptides can be selected as having LD50 values of less than or equal to about 25 μg/ml)
- MBC E. coli A.25922 [1]: 40 µg/mL
- MBC P. aerug A.27853 [2]: 30 µg/mL
- MBC S. aur A.25923 [3]: 40 µg/mL
- MFC Candida A.10231 [4]: >50 µg/mL

Molecule: VAKALKALLKALKAL-NH2 [compound 501]
- Anti-cancer (preferred peptide) (cancer cell lines): X (Preferred anticancer peptides can be selected as having LD50 values of less than or equal to about 25 μg/ml)
- HC50 at 1 h (in vitro [5]; [11]): 15 µg/mL
- CC50 at 24 h (in vitro [6]; [12]): 26 µg/mL

Molecule: FAKKLAKLALKLAKL-NH2 [compound 44]
- Anti-cancer (preferred peptide) (cancer cell lines): X (Preferred anticancer peptides can be selected as having LD50 values of less than or equal to about 25 μg/ml)
- MBC E. coli A.25922 [1]: 10 µg/mL
- MBC P. aerug A.27853 [2]: 55 µg/mL
- MBC S. aur A.25923 [3]: 30 µg/mL
- MFC Candida A.10231 [4]: >50 µg/mL

Molecule: FAKKALKALKKL-NH2 [compound 47]
- Anti-cancer (preferred peptide) (cancer cell lines): X (Preferred anticancer peptides can be selected as having LD50 values of less than or equal to about 25 μg/ml)
- MBC E. coli A.25922 [1]: >50 µg/mL
- MBC P. aerug A.27853 [2]: >50 µg/mL
- MBC S. aur A.25923 [3]: >50 µg/mL
- MFC Candida A.10231 [4]: >50 µg/mL

Molecule: FAKLLAKALKKAL-NH2 [P102, FAKLLAKALKKAL-NH2]
- paerug9027 (MIC) [7]: 10 µg/mL
- staph6538 (MIC) [8]: 5 µg/mL
- yeast (MIC or MFC) [9]: 50 µg/mL
- LD50 BMKC (BMKC): 60 µg/mL
- H1299 LD50 (H1299): 27 µg/mL
- HeLaS3 LD50 (HeLaS3): 43 µg/mL
- LD50 MCF7 (MCF7): 60 µg/mL
- PC3 LD50 (PC3): 66 µg/mL
- LD50 SW480 (SW480): 57 µg/mL
- HC50 at 1 h (in vitro [5]; pH 7, hemolytic assay, concentration at 50% hemolysis, 1 hour at 37° C., read-out: LD50): 500 µg/mL
- MIC Cm-comb. (P. aeruginosa H374; MIC of chloramphenicol with peptide at ¼ MIC): 16 µg/mL
- MIC Nal-comb. (P. aeruginosa H374; MIC of nalidixic acid with peptide at ¼ MIC): 5000 µg/mL
- FIC Index (P. aeruginosa H374; chloramphenicol + peptide at ¼ MIC): 1.25
- FIC Index (P. aeruginosa H374; nalidixic acid + peptide at ¼ MIC, FIC=0.25+MIC comb/MIC alone): 1.25
- FIC Index (P. aeruginosa H774): 1.25
- MIC Nal-comb. (P. aeruginosa): 624 µg/mL
- Epidermal thickening [10]: 50 % of control (TCA only)
- Fibroblast cells in test area [10]: 220 % of normal skin
- Inflammatory response area [10]: 27 % of healed scar
- Leukocyte cells in test area [10]: 370 % of normal skin
- Wound closure ([10]; 26 days): 96.7 % of initial wound
- WI38 LD50 (WI38): 73 µg/mL
- CC50 at 24 h (in vitro [6]; LD50 WI38, WI38 normal lung fibroblast line, MTT, 24 hours with peptide): 73 µg/mL

Molecule: KWKLFKKALKKLKKALKKAL-NH2 [compound 104]
- Anti-cancer (preferred peptide) (cancer cell lines): X (Preferred anticancer peptides can be selected as having LD50 values of less than or equal to about 25 μg/ml)

Molecule: FAKKLAKLAKKLLAL-NH2 [compound 38]
- Anti-cancer (preferred peptide) (cancer cell lines): X (Preferred anticancer peptides can be selected as having LD50 values of less than or equal to about 25 μg/ml)
- HC50 at 1 h (in vitro [5]; [11]): 350 µg/mL
- CC50 at 24 h (in vitro [6]; [12]): 100 µg/mL
- MBC E. coli A.25922 [1]: 15 µg/mL
- MBC P. aerug A.27853 [2]: 30 µg/mL
- MBC S. aur A.25923 [3]: 15 µg/mL

Molecule: VAKLLAKALKKLL-NH2 [compound 506]
- Anti-cancer (preferred peptide) (cancer cell lines): X (Preferred anticancer peptides can be selected as having LD50 values of less than or equal to about 25 μg/ml)
- HC50 at 1 h (in vitro [5]; [11]): 120 µg/mL
- CC50 at 24 h (in vitro [6]; [12]): 75 µg/mL

Molecule: KWKLFKKKTKLFKKFAKKLAKKL-OH [compound 81]
- Anti-cancer (preferred peptide) (cancer cell lines): X (Preferred anticancer peptides can be selected as having LD50 values of less than or equal to about 25 μg/ml)

Molecule: CC[C@H](C)[C@H](N)C(=O)N[C@@H](CC(C)C)C(=O)N1CCC[C@H]1C(=O)N[C@@H](Cc1c[nH]c2ccccc12)C(=O)N[C@@H](CCCCN)C(=O)N[C@@H](Cc1c[nH]c2ccccc12)C(=O)N1CCC[C@H]1C(=O)N[C@@H](Cc1c[nH]c2ccccc12)C(=O)N[C@@H](Cc1c[nH]c2ccccc12)C(=O)N1CCC[C@H]1C(=O)N[C@@H](Cc1c[nH]c2ccccc12)C(=O)N[C@@H](CCCNC(=N)N)C(=O)N[C@@H](CCCNC(=N)N)C(=O)O [compound 91]
- Anti-cancer (preferred peptide) (cancer cell lines): X (Preferred anticancer peptides can be selected as having LD50 values of less than or equal to about 25 μg/ml)

Molecule: FAKKLAKKLAKLL-NH2 [compound 75]
- Anti-cancer (preferred peptide) (cancer cell lines): X (Preferred anticancer peptides can be selected as having LD50 values of less than or equal to about 25 μg/ml)
- MBC E. coli A.25922 [1]: 40 µg/mL
- MBC P. aerug A.27853 [2]: 30 µg/mL
- MBC S. aur A.25923 [3]: >55 µg/mL
- MFC Candida A.10231 [4]: 30 µg/mL

Molecule: FALAAKALKKLAKKLKKLAKKAL-NH2 [compound 23]
- Anti-cancer (preferred peptide) (cancer cell lines): X (Preferred anticancer peptides can be selected as having LD50 values of less than or equal to about 25 μg/ml)
- MBC E. coli A.25922 [1]: 15 µg/mL
- MBC P. aerug A.27853 [2]: 25 µg/mL
- MBC S. aur A.25923 [3]: 30 µg/mL
- MFC Candida A.10231 [4]: >50 µg/mL

Molecule: CC(C)C[C@H](NC(=O)[C@H](C)NC(=O)[C@H](CCCCN)NC(=O)[C@H](CCCCN)NC(=O)[C@H](CC(C)C)NC(=O)[C@H](C)NC(=O)[C@H](CCCCN)NC(=O)[C@H](CCCCN)NC(=O)[C@H](CC(C)C)NC(=O)[C@@H](CCCCN)NC(=O)[C@@H](CCCCN)NC(=O)[C@H](CC(C)C)NC(=O)[C@H](C)NC(=O)[C@H](CCCCN)NC(=O)[C@H](CCCCN)NC(=O)[C@H](CC(C)C)NC(=O)[C@H](C)NC(=O)[C@H](CCCCN)NC(=O)[C@H](CC(C)C)NC(=O)[C@H](C)NC(=O)[C@H](CC(C)C)NC(=O)[C@H](C)NC(=O)[C@@H](N)Cc1ccccc1)C(=O)O [compound 37] (H-FALALKALKKAL[dK][dK]LKKALKKAL-OH; N-terminus assumed)
- Anti-cancer (preferred peptide) (cancer cell lines): X (Preferred anticancer peptides can be selected as having LD50 values of less than or equal to about 25 μg/ml)
- MBC E. coli A.25922 [1]: 8 µg/mL (≈ 3.15 µM)
- MBC P. aerug A.27853 [2]: 8 µg/mL (≈ 3.15 µM)
- MBC S. aur A.25923 [3]: 40 µg/mL (≈ 15.8 µM)
- MFC Candida A.10231 [4]: >50 µg/mL

Molecule: FAKFLAKFLKKAL-NH2 [compound 111]
- Anti-cancer (preferred peptide) (cancer cell lines): X (Preferred anticancer peptides can be selected as having LD50 values of less than or equal to about 25 μg/ml)
- HC50 at 1 h (in vitro [5]; [11]): 5 µg/mL
- CC50 at 24 h (in vitro [6]; [12]): 25 µg/mL
- MBC E. coli A.25922 [1]: 30 µg/mL
- MBC S. aur A.25923 [3]: 40 µg/mL
- MFC Candida A.10231 [4]: INACT
